The values below come from article PMC2936419, “Engineering of N. benthamiana L. plants for production of N-acetylgalactosamine-glycosylated proteins - towards development of a plant-based platform for production of protein therapeutics with mucin type O-glycosylation” (BMC Biotechnology, 2010).

The experiment deals with T1, human GalNAc-T2 (Homo sapiens, UniProt Q10471).
T1 construct: gene GALNT2; full coding region, untagged (pH7WG2:GNT2), stably expressed in Nicotiana benthamiana; microsomal fraction; ~65 kDa
Kind of experiment: GalNAc transfer to hCG-beta peptide; RP-HPLC, MALDI-TOF MS, radioactive assay. Type of experiment: biochemical. Conditions: donor with acceptor hCG-beta peptide 113-136 (500 ug in 100 ul); 10 mM MnCl2, 25 mM Tris HCl pH 7.4, 0.25% Triton X-100, 37 C; microsomes; control-plant microsomes as negative control; also 3H-labelle.

T1 sequence (Q10471 whole entry): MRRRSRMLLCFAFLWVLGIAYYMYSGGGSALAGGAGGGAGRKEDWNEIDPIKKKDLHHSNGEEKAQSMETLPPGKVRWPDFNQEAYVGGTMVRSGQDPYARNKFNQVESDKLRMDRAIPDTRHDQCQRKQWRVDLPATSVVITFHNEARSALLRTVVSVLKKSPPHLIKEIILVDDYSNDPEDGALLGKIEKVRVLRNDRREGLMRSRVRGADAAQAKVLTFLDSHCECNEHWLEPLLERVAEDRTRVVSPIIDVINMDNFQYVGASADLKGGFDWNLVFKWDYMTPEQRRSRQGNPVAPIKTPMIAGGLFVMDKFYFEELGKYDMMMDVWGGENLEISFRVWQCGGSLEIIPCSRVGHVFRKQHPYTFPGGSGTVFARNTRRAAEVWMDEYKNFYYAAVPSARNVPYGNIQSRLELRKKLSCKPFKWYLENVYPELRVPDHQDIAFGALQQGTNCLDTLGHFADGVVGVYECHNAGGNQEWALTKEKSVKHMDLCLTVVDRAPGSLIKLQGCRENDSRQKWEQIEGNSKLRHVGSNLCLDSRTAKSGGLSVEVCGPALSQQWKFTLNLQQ

For `CC(=O)N[C@H]1[C@@H](OP(=O)(O)OP(=O)(O)OC[C@H]2O[C@@H](n3ccc(=O)[nH]c3=O)[C@H](O)[C@@H]2O)O[C@H](CO)[C@H](O)[C@@H]1O` [UDP-GalNAc], the “GalNAc transfer to hCG-beta peptide; RP-HPLC, MALDI-TOF MS, radioactive assay” value is “plant microsomal fraction as an enzyme source, UDP-GalNAc as the donor”.
